How the values were obtained:
HeLa cells = assay: Imaging of reactive oxygen species in living HeLa cells after sodium hypochlorite stimulation; assay type: cell-based; conditions: 1.0 μM loaded for 15 minutes, 500 μM sodium hypochlorite
Description: Imaging of reactive oxygen species in living cells was performed by using the compound 5 (APC). The compound 6 (APC-AM, 1.0 μM, 0.1% dimethylformamide (cosolvent)), which corresponds to APC esterified to increase cell membrane permeability, was loaded on the HeLa cells for 15 minutes by addition to the medium of the cells, and then the cells were stimulated with 500 μM sodium hypochlorite.

HL-60 cells [1] = assay: Intracellular retentivity of reaction products of APF and APC-AM in HL-60 cells by FACS; assay type: cell-based; conditions: 10 μM loaded 60 minutes, 100 μM hydrogen peroxide 15 minutes
Description: Intracellular retentivities of the reaction products produced from APF and APC with the reactive oxygen species were compared in a similar manner. APF and APC-AM (10 μM, 1.0% dimethylformamide (cosolvent) for the both) were loaded on the HL-60 cells for 60 minutes by adding them to the medium of the cells, and then the cells were stimulated with 100 μM hydrogen peroxide for 15 minutes. Then, fluorescence intensity was periodically measured (0 minute, 30 minutes, 60 minutes) by FACS. In FIG. 6, the graphs (A) to (C) show the results obtained with APF, and the graphs (D) to (F) show the results obtained with APC-AM. The graphs (A) and (D) show the results obtained immediately after the hydrogen peroxide stimulation, (B) and (E) show the results obtained 30 minutes after the stimulation, and (C) and (F) show the results obtained 60 minutes after the stimulation.

[2] = Fluorescence quantum yield (Φf); assay type: physicochemical
Description: (§1) The compound 5 (APC) is a substantially non-fluorescent (Φf=0.007) substance having a moiety that specifically reacts with reactive oxygen species in the molecule. This substance specifically reacts with reactive oxygen species, and thereby becomes calcein to emit fluorescence. The tetracetoxymethyl ester of this calcein and diacetyl ester of fluorescein were taken up by HL-60 cells, and intracellular retentivity of calcein and fluorescein was evaluated.

HL-60 cells [3] = assay: Intracellular retentivity of calcein and fluorescein taken up by HL-60 cells as esters; assay type: cell-based
Description: as §1

[4] = pKa comparison of calcein and fluorescein; assay type: physicochemical

SMILES: CC(=O)OCOC(=O)CN(CC(=O)OCOC(C)=O)Cc1c(O)ccc2c1Oc1c(ccc(Oc3ccc([N+](=O)[O-])cc3)c1CN(CC(=O)OCOC(C)=O)CC(=O)OCOC(C)=O)C21OC(=O)c2ccccc21 (centres unmarked) [APC-AM, 3-Hydroxy-4,5-bis[N,N′-di(carboxymethyl)aminomethyl]-6-(4′-nitro)phenoxyfluorescein tetracetoxymethyl ester]
- Fluorescence in HeLa cells after sodium hypochlorite stimulation (HeLa cells): Extremely intense fluorescence

SMILES: Nc1ccc(Oc2ccc3c(-c4ccccc4C(=O)O)c4ccc(=O)cc-4oc3c2)cc1 [APF, aminophenylfluorescein]
- Fluorescence intensity by FACS immediately after hydrogen peroxide stimulation (HL-60 cells [1]; 0 minute): increase of fluorescence intensity was observed
- Fluorescence intensity by FACS 30 and 60 minutes after stimulation (intracellular retentivity of reaction product) (HL-60 cells [1]; 30 and 60 minutes): detection thereof became difficult after 30 minutes

SMILES: O=C(O)CN(CC(=O)O)Cc1cc2c(cc1O)Oc1cc(O)c(CN(CC(=O)O)CC(=O)O)cc1C21OC(=O)c2ccccc21 [calcein]
- Fluorescence quantum yield Φf [2]: 0.793
- Fluorescence intensity in the HL-60 cells over time (intracellular retentivity) (HL-60 cells [3]; after 60 minutes, loaded as tetracetoxymethyl ester): hardly decreased
- pKa [4]: ~5.4

SMILES: O=C1OC2(c3ccc(O)cc3Oc3cc(O)ccc32)c2ccccc21 [fluorescein]
- Fluorescence intensity in the HL-60 cells over time (intracellular retentivity), level remaining (HL-60 cells [3]; after 15 minutes, loaded as diacetyl ester, fraction of the starting intensity): 1/10
- pKa [4]: 6.4
